Measurements as given in publication PMC4588179, “Antifungal Activity of 14-Helical β-Peptides against Planktonic Cells and Biofilms of Candida Species” (Pharmaceuticals, 2015).
Values after ≈ are worked out from the molar mass of the structure shown.

Assays:
C. glabrata 5376 = assay: Planktonic antifungal susceptibility (modified CLSI, XTT end point); type: cell-based, Candida glabrata; settings: 10^3 cells/mL, RPMI, 35 °C, 48 h, XTT (A490), <10% metabolic activity, at least two independent days, three replicates each
Method: (§1) C. albicans strains SC5314 and ATCC 90028 were purchased from ATCC. C. albicans K1, C. glabrata 5376, C. parapsilosis 5986 and C. tropicalis 98-234 are clinical isolates from invasive candidiasis and were generously donated by the Andes group (University of Wisconsin-Madison). K1 is fluconazole resistant. All strains were stored as a 50% glycerol stock at −80 °C and grown in a liquid YPD media. For planktonic susceptibility testing, cells were grown on agar plates at 30 °C for 24 h and 2–3 colonies were used for the cell inoculum. For spheroplast formation and biofilm susceptibility testing assays, cells were grown overnight in YPD at 30 °C. RPMI (with L-glutamine and phenol red buffered with 3-(N-morpholino) propanesulfonic acid and adjusted to pH 7.0) was the media used for all susceptibility tests. XTT solution for assessing metabolic activity was prepared at 0.5 g/L in PBS with 3 μM menadione in acetone and pH adjusted to 7.4.
(§2) The antifungal activities of the β-peptides against C. albicans, C. glabrata, C. parapsilosis, C. tropicalis cells were assayed in accordance to the guidelines for planktonic susceptibility testing provided by the Clinical and Laboratory Standards Institute, but with a modification to include a quantitative XTT cell metabolic activity end-point. […] After 48 h, the MICs were recorded visually as the first well that […] and by using an XTT metabolic assay. […]

C. tropicalis 98-234 = assay: as above; type: cell-based, Candida tropicalis; settings: 10^3 cells/mL, RPMI, 35 °C, 48 h, XTT (A490), <10% metabolic activity, at least two independent days, three replicates each
Method: as §1, §2

C. parapsilosis 5986 = assay: as above; type: cell-based, Candida parapsilosis; settings: 10^3 cells/mL, RPMI, 35 °C, 48 h, XTT (A490), <10% metabolic activity, at least two independent days, three replicates each
Method: as §1, §2

[1] = test system: human red blood cells (hRBCs); assay: Hemolysis of human red blood cells; type: cell-based; settings: hRBCs, 2-fold dilutions in tris-buffered saline, an hour at 37 °C, absorbance 405 nm, relative to positive lysis control; average ± standard deviation of three independent experiments of duplicates each
Method: Table S1. Hemolysis of β-peptide 1-16, concentration of β-peptid e needed for 50% lysis of human red blood cells (hRBCs)
Peptide # Peptide Concentration at 50% Hemolysis a (HC50, µg/mL) […]
a Hemolysis assays were perfor med as previously indicated in Lee, M.R. et al., ACS Chem. Biol. (2014). Briefly, equal volumes of 2-fold dilutions of β-peptides in tris-buffered saline (TBS) were incubated with hRBCs for an hour at 37 °C. Supernatants were transferred to a new plate and absorbance was measured at 405 nm.
% hemolysis was calculated relative to positive lysis control and the concentration of peptide needed for 50% hemolysis was recorded as HC50 for that peptide. Values reported are average measurements from three independent experiments of duplicates each and the error denoted is the standard deviation. Concentration dependent hemolysis graphs can be found in Lee, M.R. et al., ACS Chem. Biol. (2014).

[2] = RP-HPLC retention time as measure of β-peptide hydrophobicity; type: physicochemical; settings: chromatographic, analytical RP-HPLC, C18 (Waters X-bridge, 4.6 mm × 250 mm), gradient 20%–80% CH3CN in water with 0.1% TFA over 5–35 min, 1 mL/minute, 0.5 to 1 mg/mL, 50 µL injected; mean ± standard deviation of triplicate measurements
Description: β-peptides were produced by microwave-assisted Fmoc synthesis at 20−40 μmol scales and purified by RP-HPLC using a C18 column. MALDI mass spectrometry was used to validate the mass of each peptide as described previously. Retention times determined by C18 RP-HPLC were used as a measure of the relative hydrophobicity of the β-peptides (Table 1). This approach has been used previously by our group and others to assess the relative hydrophobicity of different peptide structures. Preliminary antifungal activity and mammalian toxicity evaluation were reported previously for β-peptides 1–16 as planktonic MIC against C. albicans and percent hemolysis at the MIC, respectively.
Hydrophobicity of 14-helical β-peptides was characterized by measuring retention times with an analytical RP-HPLC using a C18 column (Waters, X-bridge, column dimensions 4.6 mm × 250 mm, Milford, MA, USA). The β-peptide solutions (0.5 to 1 mg/mL, 50 µL) were injected into the HPLC at a flow rate of 1 mL/minute. Retention time was characterized in triplicate with a gradient of 20%–80% CH3CN in water containing 0.1% TFA over 5–35 min.

Compound: CC(C)[C@@H](CC(=O)N[C@@H](CCCCN)CC(N)=O)NC(=O)[C@H]1CCCC[C@@H]1NC(=O)C[C@H](CCCCN)NC(=O)C[C@@H](NC(=O)[C@H]1CCCC[C@@H]1NC(=O)C[C@H](CCCCN)NC(=O)C[C@@H](NC(=O)[C@H]1CCCC[C@@H]1N)C(C)C)C(C)C [Peptide 4]
- MIC, C. glabrata (C. glabrata 5376): 32 µg/mL (≈ 27.6 µM)
- MIC, C. tropicalis (C. tropicalis 98-234): 4 µg/mL (≈ 3.45 µM)
- MIC, C. parapsilosis (C. parapsilosis 5986): 16 µg/mL (≈ 13.8 µM)
- Peptide Concentration at 50% Hemolysis (HC50) [1]: 161 ± 40 µg/mL
- Hydrophobicity (HPLC Retention Time, min) [2]: 24.5 ± 0.2 min
